Values after ≈ are worked out from the molar mass of the structure shown. Read-outs that look alike come from different tables or passages of the source.
Columns and labels:
marine bacteria [1] = assay: Bacterial adhesion assay, whole panel of ten strains; type: cell-based, 10 marine bacterial strains; settings: tested up to 10 μg/mL, active = MIC of 10 μg/mL or below
Source text: (§1) Cyprid larvae of B. improvisus were reared in a laboratory cultivating system at Tjärnö Marine Biological Laboratory, University of Gothenburg, Sweden, as previously described by Berntsson et al. ([2000]). Four pure, but non-axenic, marine microalgae (obtained from Algobank, Caen, France) and 10 marine bacterial strains were used (Table 1) as representative microfoulers. These strains represent fouling species encountered in both estuarine and marine environments (Moodie et al. [2017b]). The bacteria were grown at 26 °C in a marine medium, composed of 0.5% peptone (neutralized bacteriological peptone, Oxoid Ltd.) in filtered (Whatman 1001–270, pore size 11 μm) natural seawater. Microalgae were grown and maintained at 22 °C in F/2 medium.
(§2) Bacterial strain adhesion and growth were determined according to the methods of Thabard et al. ([2011]). Bacterial suspensions (100-μL aliquots, 2 × 10^8 colony forming units/mL) were aseptically added to the compound containing microplate wells (10–0.01 μg/mL), and the plates were incubated for 48 h at 26 °C. Media only was used as a blank. Bacterial growth was monitored spectroscopically at 630 nm. The minimal inhibitory concentration (MIC) for bacterial growth was defined as the lowest concentration which results in a decrease in OD. After 48-h incubation time, the bacterial adhesion assay was conducted by emptying the wells and rinsing with sterile seawater (100 μL) to remove non-attached cells, and air-drying at room temperature. The residual bacterial biofilm was stained with aqueous crystal violet (100 μL, 0.3% v/v) and the OD measured at 595 nm (Sonak and Bhosle [1995]). […] If inhibition was observed, toxicity tests were conducted. The well contents were transferred into a flask of fresh media, and growth was measured after 5 days of additional incubation. The mode of action was deemed biostatic if an increase in OD was measured at 595 nm (Moodie et al. [2017a]).

Halamphora coffeaeformis [2] = assay: Microalgal growth assay (chlorophyll a); type: cell-based; settings: Halamphora coffeiformis, 120 h, 5 days incubation, 10–0.01 μg/mL tested, read-out: MIC against the growth (G) of microalgae, H. coffeaformis
Source text: as §1
(§3) Microplates containing the compounds in ranging concentrations (10–0.01 μg/mL) were prepared from MeOH stock solutions as previously described (Trepos et al. [2014]; Moodie et al. [2017a]). Microalgal stock solutions were prepared using the chlorophyll analysis methodology of Chambers et al. ([2011]). The pretreated microplate wells were treated with 100 μL of the algal stock solutions (0.1 mg chlorophyll a/mL). The plates were then incubated for 5 days at 20 °C under constant light exposure (140 μmol m^−2 s^−1). Both microalgal adhesion and growth inhibition were measured. Growth was determined by analysis of liberated chlorophyll a after centrifugation and methanol addition. Chlorophyll a was quantified fluorometrically. MIC value for algal growth was defined as the lowest concentration yielding a decrease in chlorophyll a content. Microalgal adhesion was determined in an analogous manner where the non-attached algal cells were removed prior to methanol addition (100 μL), releasing chlorophyll a from the remaining algal biofilms. The MIC for adhesion was defined as the lowest compound concentration causing a reduction in […]. Toxicity experiments were performed in an analogous manner to those described for the bacterial assays.

[3] = tested on: Pleurochrysis roscoffensis; assay: Microalgal growth assay (chlorophyll a); type: cell-based; settings: Chrysotila roscoffensis, 120 h, 5 days incubation, 10–0.01 μg/mL tested, read-out: MIC against the growth (G) of microalgae, P. roscoffensis
Source text: as §1, §3

Porphyridium purpureum [4] = assay: Microalgal growth assay (chlorophyll a); type: cell-based; settings: 120 h, 5 days incubation, 10–0.01 μg/mL tested, read-out: MIC against the growth (G) of microalgae, P. purpureum
Source text: as §1, §3

Cylindrotheca closterium [5] = assay: Microalgal growth assay (chlorophyll a); type: cell-based; settings: 120 h, 5 days incubation, 10–0.01 μg/mL tested, read-out: MIC against the growth (G) of microalgae, C. closterium
Source text: as §1, §3

Vibrio aestuarianus [6] = assay: Bacterial adhesion assay (crystal violet, OD 595 nm); type: cell-based; settings: 48 h, read-out: MIC against the adhesion of marine bacteria, V.a.
Source text: as §1, §2

Halomonas aquamarina [7] = assay: as above; type: cell-based; settings: Vreelandella aquamarina, 48 h incubation, 10–0.01 μg/mL tested, read-out: MIC against the adhesion of marine bacteria, H.a.
Source text: as §1, §2

Vibrio carchariae [8] = assay: as above; type: cell-based; settings: Vibrio harveyi, 48 h, read-out: MIC against the adhesion of marine bacteria, V.c.
Source text: as §1, §2

Vibrio harveyi [9] = assay: as above; type: cell-based; settings: 48 h, read-out: MIC against the adhesion of marine bacteria, V.h.
Source text: as §1, §2

[10] = tested on: Balanus improvisus cyprid larvae; assay: whole plant or invertebrate; type: in vivo
Source text: as §1
Stock solutions of compounds in DMSO were serially diluted in untreated polystyrene Petri dishes containing 10 mL of filtered (0.2 μm) seawater, affording final concentrations ranging from 0.1 to 10 μg/mL. Freshly molted balanide cyprids (18–22) were added to each Petri dish and incubated at ambient temperature (20–25 °C) for 5 days. Cyprid metamorphosis was assessed using a dissecting microscope where the numbers of juvenile settled, free-swimming, and dead cyprids were noted. Initial compound screening was conducted at 5 μg/mL, and full IC50 determination was performed only on compounds displaying > 50% inhibition at that concentration. The IC50 was defined as the concentration preventing 50% of the cyprid settlement on the Petri dish surface. Each concentration was replicated four times (n = 4), and dishes containing 0.1% of DMSO were used as negative controls. The commercial AF agent Sea-nine™ was employed as a positive control.

Vibrio natriegens [11] = assay: Bacterial growth assay (OD 630 nm); type: cell-based; settings: 48 h incubation, 10–0.01 μg/mL tested, read-out: MIC against the growth of marine bacteria, V.n.
Source text: as §1, §2

Vibrio proteolyticus [12] = assay: Bacterial growth assay (OD 630 nm); type: cell-based; settings: 48 h incubation, 10–0.01 μg/mL tested, read-out: MIC against the growth of marine bacteria, V.p.
Source text: as §1, §2

Vibrio aestuarianus [13] = assay: Bacterial growth assay (OD 630 nm); type: cell-based; settings: 48 h incubation, 10–0.01 μg/mL tested, read-out: MIC against the growth of marine bacteria, V.a.
Source text: as §1, §2

Roseobacter litoralis [14] = assay: Bacterial growth assay (OD 630 nm); type: cell-based; settings: 48 h incubation, 10–0.01 μg/mL tested, read-out: MIC against the growth of marine bacteria, R.l.
Source text: as §1, §2

Halomonas aquamarina [15] = assay: Bacterial growth assay (OD 630 nm); type: cell-based; settings: Vreelandella aquamarina, 48 h incubation, 10–0.01 μg/mL tested, read-out: MIC against the growth of marine bacteria, H.a.
Source text: as §1, §2

Shewanella putrefaciens [16] = assay: Bacterial growth assay (OD 630 nm); type: cell-based; settings: 48 h incubation, 10–0.01 μg/mL tested, read-out: MIC against the growth of marine bacteria, S.p.
Source text: as §1, §2

Vibrio carchariae [17] = assay: Bacterial growth assay (OD 630 nm); type: cell-based; settings: Vibrio harveyi, 48 h incubation, 10–0.01 μg/mL tested, read-out: MIC against the growth of marine bacteria, V.c.
Source text: as §1, §2

[18] = tested on: Pseudoalteromonas elyakovii; assay: Bacterial growth assay (OD 630 nm); type: cell-based; settings: 48 h incubation, 10–0.01 μg/mL tested, read-out: MIC against the growth of marine bacteria, P.e.
Source text: as §1, §2

Vibrio harveyi [19] = assay: Bacterial growth assay (OD 630 nm); type: cell-based; settings: 48 h incubation, 10–0.01 μg/mL tested, read-out: MIC against the growth of marine bacteria, V.h.
Source text: as §1, §2

Halamphora coffeaeformis [20] = settings: ref Hanssen et al. ([2014]); cited from earlier work
Porphyridium purpureum [21] = settings: ref Hanssen et al. ([2014]); cited from earlier work
Cylindrotheca closterium [22] = settings: ref Hanssen et al. ([2014]); cited from earlier work
Halamphora coffeaeformis [23] = settings: ref Hanssen et al. ([2014]); cited from earlier work; remark: listed apart in the source
microalgae = tested on: microalgae; set-up: method as in Hanssen et al. [2014]; settings: ref Hanssen et al. [2014]; cited from earlier work
Vibrio aestuarianus [24] = settings: ref Hanssen et al. ([2014]); cited from earlier work
Vibrio proteolyticus [25] = settings: ref Hanssen et al. ([2014]); cited from earlier work
marine bacteria [26] = settings: panel of marine bacteria; ref Hanssen et al. [2014]; cited from earlier work
Cylindrotheca closterium [27] = settings: ref Hanssen et al. ([2014]); cited from earlier work; remark: listed apart in the source
[28] = tested on: Pleurochrysis roscoffensis; settings: ref Hanssen et al. ([2014]); cited from earlier work
Roseobacter litoralis [29] = settings: ref Hanssen et al. ([2014]); cited from earlier work
Vibrio carchariae [30] = settings: ref Hanssen et al. ([2014]); cited from earlier work
[31] = tested on: Pleurochrysis roscoffensis; settings: ref Hanssen et al. ([2014]); cited from earlier work; remark: listed apart in the source
Vibrio natriegens [32] = settings: ref Hanssen et al. ([2014]); cited from earlier work
Vibrio harveyi [33] = settings: ref Hanssen et al. ([2014]); cited from earlier work
Shewanella putrefaciens [34] = settings: ref Hanssen et al. ([2014]); cited from earlier work
Halomonas aquamarina [35] = settings: ref Hanssen et al. ([2014]); cited from earlier work
Vibrio harveyi [36] = settings: ref Hanssen et al. ([2014]); cited from earlier work; remark: listed apart in the source
Porphyridium purpureum [37] = settings: ref Hanssen et al. ([2014]); cited from earlier work; remark: listed apart in the source
[38] = tested on: Balanus improvisus cyprid larvae; settings: B. improvisus, ref Hanssen et al. ([2014]), cited from earlier work
Vibrio carchariae [39] = settings: ref Hanssen et al. ([2014]); cited from earlier work; remark: listed apart in the source
Vibrio proteolyticus [40] = settings: ref Hanssen et al. ([2014]); cited from earlier work; remark: listed apart in the source
[41] = tested on: Pseudoalteromonas elyakovii; settings: ref Hanssen et al. ([2014]); cited from earlier work
Vibrio aestuarianus [42] = settings: ref Hanssen et al. ([2014]); cited from earlier work; remark: listed apart in the source
Halomonas aquamarina [43] = settings: ref Hanssen et al. ([2014]); cited from earlier work; remark: listed apart in the source

## COc1cc(CC(=NO)c2ccc(OC)c(OC)c2)ccc1O [Compound 14, 1-(3,4-dimethoxyphenyl)-1-hydroxyimino-2-(3’-methoxy-4’-hydroxyphenyl)-ethane]
Marine bacteria [1]
  MIC / activity against the adhesion of all bacteria tested: displayed inhibitory activities
Halamphora coffeaeformis [2]
  MIC: 10 µg/mL (≈ 31.5 µM)
[3]
  MIC: 10 µg/mL (≈ 31.5 µM)
Porphyridium purpureum [4]
  MIC: > 10 µg/mL
Cylindrotheca closterium [5]
  MIC: 10 µg/mL (≈ 31.5 µM)
Vibrio aestuarianus [6]
  MIC: 10 µg/mL (≈ 31.5 µM)
Halomonas aquamarina [7]
  MIC: 10 µg/mL (≈ 31.5 µM)
Vibrio carchariae [8]
  MIC: 10 µg/mL (≈ 31.5 µM)
Vibrio harveyi [9]
  MIC: 10 µg/mL (≈ 31.5 µM)
[10]; Amphibalanus improvisus, 120 h, read-out: IC50 (cyprid settlement inhibition)
  IC50: 1 µg/mL (≈ 3.15 µM)
[10]; Balanus improvisus, in vivo, 5 days, 5 μg/mL
  Toxicity (%) (dead cyprids): 4.8%
Vibrio natriegens [11]
  MIC: > 10 µg/mL
Vibrio proteolyticus [12]
  MIC: > 10 µg/mL
Vibrio aestuarianus [13]
  MIC: > 10 µg/mL
Roseobacter litoralis [14]
  MIC: > 10 µg/mL
Halomonas aquamarina [15]
  MIC: > 10 µg/mL
Shewanella putrefaciens [16]
  MIC: 10 µg/mL (≈ 31.5 µM)
Vibrio carchariae [17]
  MIC: > 10 µg/mL
[18]
  MIC: > 10 µg/mL
Vibrio harveyi [19]
  MIC: > 10 µg/mL

## COc1c(Br)cc(C/C(=N\O)C(=O)NCCc2c[nH]c(=N)[nH]2)cc1Br [Ianthelline, ianthelline]
Halamphora coffeaeformis [20]
  MIC against the growth (G) of microalgae, H. coffeaformis: > 10 µg/mL
Porphyridium purpureum [21]
  MIC against the adhesion (A) of microalgae, P. purpureum: > 10 µg/mL
Cylindrotheca closterium [22]
  MIC against the adhesion (A) of microalgae, C. closterium: > 10 µg/mL
Halamphora coffeaeformis [23]
  MIC against the adhesion (A) of microalgae, H. coffeaformis: > 10 µg/mL
microalgae
  antialgal activity, in words: poor antialgal activity
Vibrio aestuarianus [24]
  MIC against the adhesion of marine bacteria, V.a.: 0.1 µg/mL
Vibrio proteolyticus [25]
  MIC against the growth of marine bacteria, V.p.: 10 µg/mL
Marine bacteria [26]
  Inhibition of bacterial adhesion, in general: not effective
Cylindrotheca closterium [27]
  MIC against the growth (G) of microalgae, C. closterium: > 10 µg/mL
[28]
  MIC against the adhesion (A) of microalgae, P. roscoffensis: > 10 µg/mL
Roseobacter litoralis [29]
  MIC against the growth of marine bacteria, R.l.: 1 µg/mL
Vibrio carchariae [30]
  MIC against the adhesion of marine bacteria, V.c.: – (Not active at > 10 μg/mL)
[31]
  MIC against the growth (G) of microalgae, P. roscoffensis: 10 µg/mL
Vibrio natriegens [32]
  MIC against the growth of marine bacteria, V.n.: – (Not active at > 10 μg/mL)
Vibrio harveyi [33]
  MIC against the growth of marine bacteria, V.h.: 10 µg/mL
Shewanella putrefaciens [34]
  MIC against the growth of marine bacteria, S.p.: 0.1 µg/mL
Halomonas aquamarina [35]
  MIC against the adhesion of marine bacteria, H.a.: – (Not active at > 10 μg/mL)
Vibrio harveyi [36]
  MIC against the adhesion of marine bacteria, V.h.: – (Not active at > 10 μg/mL)
Porphyridium purpureum [37]
  MIC against the growth (G) of microalgae, P. purpureum: > 10 µg/mL
[38]
  IC50 (cyprid settlement inhibition): 3.0 µg/mL (≈ 6.31 µM)
[38]; reported at 5 μg/mL
  Toxicity (%) (dead cyprids): 10.0%
Vibrio carchariae [39]
  MIC against the growth of marine bacteria, V.c.: – (Not active at > 10 μg/mL)
Vibrio proteolyticus [40]
  MIC against the adhesion of marine bacteria, V.p.: – (Not active at > 10 μg/mL)
[41]
  MIC against the growth of marine bacteria, P.e.: 1 µg/mL
Vibrio aestuarianus [42]
  MIC against the growth of marine bacteria, V.a.: 0.1 µg/mL
Halomonas aquamarina [43]
  MIC against the growth of marine bacteria, H.a.: – (Not active at > 10 μg/mL)
